Reference: US20130252956A1, “METHODS OF TREATING CANCER” (priority 2010, published 2013)

Assays:
[1] = system: unresectable/metastatic HCC; assay: Antitumour activity (time to progression by modified RECIST) in patients dosed at the maximum tolerated dose; type: in vivo, human; details: 38 evaluable patients at the maximum tolerated dose (30 mg OD); 95% confidence intervals (2.8, not achieved)
From the text: To enable a more accurate description of the potential clinical benefit of foretinib in patients with HCC, the method of tumor evaluation was changed to incorporate the mRECIST criteria for HCC as proposed by Llovet et al (Llovet, et al. 2008 supra) and further described by Lencioni & Llovet (Lencioni & Llovet Modified RECIST (mRECIST) Assessment for Hepatocellular Carcinoma. Seminars in Liver Disease. 2010; 30:52-60) in addition to the standard RECIST assessment.
The primary endpoint for assessing antitumor activity will be response rate (CR+PR) according to mRECIST (Lencioni, 2010), assessed by independent, central, radiological review, in subjects with advanced (unresectable and/or metastatic) HCC treated with foretinib at the maximum tolerated dose. […]
Tumor response for subjects with measurable lesions should be assessed routinely as specified in the table below. Serial CT-scans (preferred) or MRI will be evaluated for response (CR or PR) and SD according to mRECIST (Lecioni, 2010) and RECIST 1.0 (Therasse, et al. New guidelines to evaluate the response to treatment in solid tumors. European Organization for Research and Treatment of Cancer, National Cancer Institute of the United States, National Cancer Institute of Canada. J Natl Cancer Inst. 2000; 92:205-16.). […]

[2] = Phase I dose escalation/expanded cohort study of oral foretinib in HCC patients: safety, dose-limiting toxicities, maximum tolerated dose; details: human, in vivo
Protocol: Each treatment cycle will consist of 21 consecutive days. Subjects enrolled in this study will receive oral foretinib administered once daily. Blood samples for PK analysis will be obtained before and after dosing on Days 1 and 15 of Treatment Period 1 in both the Dose-Escalation and Expanded Cohort Phases. For subjects in the Expanded Cohort Phase, no dose will be administered on Days 2 and 3 of Treatment Period 1 to allow the pharmacokinetics of foretinib to be assessed over a 72 hour interval after the first dose. Subjects will continue to receive study drug until disease progression or withdrawal from study because of unacceptable toxicity or other reasons (e.g., withdrawal of consent, noncompliance). Disease progression is defined as objective disease progression according to mRECIST and/or clinical progression (e.g. emergence of significant new disease-related symptoms and/or significant deterioration of pre-existing disease-related symptoms requiring treatment; or deterioration of ECOG performance status by 2 units—see Appendix 3). For the purpose of the final analysis, the duration of the study is planned to be 2 years after enrollment is completed.
Patients with measurable unresectable/metastatic HCC, no prior sorafenib or other multi-kinase inhibitors, ECOG PS 0-1, adequate organ function and Child-Pugh grade A are eligible for enrolment. […]

first-line advanced HCC = first-line advanced HCC patients treated with sorafenib; 95% CI (2.6, 3.6); cited from earlier work

Compound: COc1cc2c(Oc3ccc(NC(=O)C4(C(=O)Nc5ccc(F)cc5)CC4)cc3F)ccnc2cc1OCCCN1CCOCC1 [foretinib, N^1-{3-fluoro-4-[(6-(methyloxy)-7-{[3-(4-morpholinyl)propyl]oxy}-4-quinolinyl)oxy]phenyl}-N^1-(4-fluorophenyl)-1,1-cyclopropanedicarboxamide]
- Median time-to-progression using modified-RECIST [1]: 4.5 months
- Dose-limiting toxicities [2]: no dose limiting toxicities were observed
- Dose-limiting toxicities (renal failure, proteinuria), patients affected [2]: 2/6

Compound: CNC(=O)c1cc(Oc2ccc(NC(=O)Nc3ccc(Cl)c(C(F)(F)F)c3)cc2)ccn1 [sorafenib, 4-[4-[[4-chloro-3-(trifluoromethyl)phenyl]carbamoylamino]phenoxy]-N-methyl-pyridine-2-carboxamide]
- Median time to progression (first-line advanced HCC): 2.8 months
